Measured values published in ChEMBL document CHEMBL1201862, “PubChem BioAssay data set” (2004).
The source made the active and inactive calls.

Legend:
[1] = target: T1, Carboxy-terminal domain RNA polymerase II polypeptide A small phosphatase 1 (Homo sapiens, UniProt Q9GZU7); assay: inhibitors of CTDSP1, concentration-response testing, biochemical assay, absorbance-based, actives from ultra-high-throughput screening (AID 540297); format: functional
T1 sequence (Q9GZU7 whole entry): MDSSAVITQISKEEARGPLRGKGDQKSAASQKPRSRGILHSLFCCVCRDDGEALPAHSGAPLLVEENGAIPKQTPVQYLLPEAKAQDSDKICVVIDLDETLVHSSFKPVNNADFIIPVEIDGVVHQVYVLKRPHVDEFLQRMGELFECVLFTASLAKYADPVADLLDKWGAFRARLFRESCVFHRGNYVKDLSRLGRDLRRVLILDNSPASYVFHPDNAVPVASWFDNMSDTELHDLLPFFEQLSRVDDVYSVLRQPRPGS

[2] = target: T2, Short transient receptor potential channel 4 (Mus musculus, UniProt Q9QUQ5); assay: mouse TRPC4 channel activators, dose response, cell-based, HEK293 TRPC4/mu-opioid, Fluo-4 calcium (AID 434937); format: functional
T2 sequence (Q9QUQ5 whole entry): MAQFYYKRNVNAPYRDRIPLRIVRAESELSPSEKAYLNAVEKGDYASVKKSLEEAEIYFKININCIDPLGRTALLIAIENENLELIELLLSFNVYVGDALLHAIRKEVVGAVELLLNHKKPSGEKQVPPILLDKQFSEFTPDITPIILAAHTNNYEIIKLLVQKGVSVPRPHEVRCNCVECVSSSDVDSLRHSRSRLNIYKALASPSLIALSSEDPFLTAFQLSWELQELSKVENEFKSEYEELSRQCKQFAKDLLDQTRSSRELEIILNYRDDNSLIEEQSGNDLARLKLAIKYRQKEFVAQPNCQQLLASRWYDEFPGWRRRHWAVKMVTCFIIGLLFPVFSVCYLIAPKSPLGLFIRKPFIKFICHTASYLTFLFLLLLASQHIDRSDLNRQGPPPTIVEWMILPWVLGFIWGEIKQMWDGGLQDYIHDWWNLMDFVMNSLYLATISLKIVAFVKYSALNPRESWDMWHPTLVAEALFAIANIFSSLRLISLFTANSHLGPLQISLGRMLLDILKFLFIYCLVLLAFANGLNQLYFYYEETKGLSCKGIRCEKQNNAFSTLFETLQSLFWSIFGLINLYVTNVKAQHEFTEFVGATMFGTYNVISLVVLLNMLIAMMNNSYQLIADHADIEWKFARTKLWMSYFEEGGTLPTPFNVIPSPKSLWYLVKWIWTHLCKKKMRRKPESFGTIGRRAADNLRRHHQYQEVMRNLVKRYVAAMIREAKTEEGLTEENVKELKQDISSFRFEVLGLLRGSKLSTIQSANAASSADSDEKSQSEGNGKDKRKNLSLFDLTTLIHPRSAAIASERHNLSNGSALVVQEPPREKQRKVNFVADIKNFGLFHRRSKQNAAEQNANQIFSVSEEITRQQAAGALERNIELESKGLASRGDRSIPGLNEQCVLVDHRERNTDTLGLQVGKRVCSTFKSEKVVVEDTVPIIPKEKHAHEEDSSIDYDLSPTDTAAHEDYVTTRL

[3] = target: T3, Corticotropin-releasing factor receptor 2/Corticotropin-releasing factor-binding protein (Homo sapiens, UniProt P24387+Q13324); assay: Dose Response confirmation of uHTS hits for small molecule antagonists of the CRF-binding protein and CRF-R2 receptor complex.; format: functional; conditions: read-out: IC50_Mean
T3 sequence (Q13324 whole entry): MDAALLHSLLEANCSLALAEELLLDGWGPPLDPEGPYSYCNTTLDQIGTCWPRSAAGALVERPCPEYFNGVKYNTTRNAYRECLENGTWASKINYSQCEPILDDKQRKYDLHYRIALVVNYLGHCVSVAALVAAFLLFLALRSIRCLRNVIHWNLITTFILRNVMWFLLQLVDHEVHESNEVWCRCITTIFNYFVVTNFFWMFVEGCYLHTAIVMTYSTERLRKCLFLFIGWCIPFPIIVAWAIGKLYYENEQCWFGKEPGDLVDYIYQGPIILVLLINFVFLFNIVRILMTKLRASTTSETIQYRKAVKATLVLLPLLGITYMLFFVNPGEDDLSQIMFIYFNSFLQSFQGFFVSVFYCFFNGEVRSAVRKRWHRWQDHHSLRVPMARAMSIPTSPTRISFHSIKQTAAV
T3 sequence (P24387 whole entry): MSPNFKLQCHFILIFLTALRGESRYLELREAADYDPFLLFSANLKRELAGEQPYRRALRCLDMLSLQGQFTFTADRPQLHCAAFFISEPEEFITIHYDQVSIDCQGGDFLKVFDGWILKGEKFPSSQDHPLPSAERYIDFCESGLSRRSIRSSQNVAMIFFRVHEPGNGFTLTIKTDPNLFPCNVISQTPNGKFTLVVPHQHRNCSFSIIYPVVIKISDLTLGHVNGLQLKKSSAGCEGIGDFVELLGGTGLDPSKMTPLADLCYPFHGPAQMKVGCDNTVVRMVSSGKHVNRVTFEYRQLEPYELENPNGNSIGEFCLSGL

[4] = target: T3, Corticotropin-releasing factor receptor 2/Corticotropin-releasing factor-binding protein; assay: activators of CRF receptor 2 with binding protein – uHTS hits, confirmation (AID 602473); format: functional; conditions: read-out: EC50_Mean
[5] = CRF-BP/CRF-R2 complex antagonists, dose response, cell-based, uHTS hits, 384-well (AID 651639); format: functional, Homo sapiens; conditions: read-out: IC50_Mean
Vero = assay: host cell cytotoxicity of antiviral hits, dose response, cytotoxicity control for West Nile virus antiviral project, secondary assay (AID 1650); format: functional; conditions: Chlorocebus sabaeus
[6] = A cytotoxicity screen of small molecule inhibitors of the PhoP region in Salmonella typhi identified in the primary screen. [Related pubchem assays: 1850, 1864, 1985 ]; format: functional
cells = format: functional, cell-based
Fatty acid synthase [7] = target: T4, Fatty acid synthase (Homo sapiens, UniProt P49327); assay: FAS thioesterase domain inhibitors, dose response, biochemical, endpoint fluorescence intensity, uHTS hits (AID 624327); format: functional;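 further: fluorescence from hydrolysis of an O-methyl fluorescein acyl ester substrate by the enzyme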
Fatty acid synthase [8] = target: T4, Fatty acid synthase; assay: FAS thioesterase domain inhibitors, dose response, biochemical, kinetic fluorescence intensity (AID 624326); format: functional;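 further: rate of fluorescence rise from hydrolysis of a fluorogenic O-methyl fluorescein ester substrate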
[9] = target: Luciferin 4-monooxygenase (Photinus pyralis, UniProt P08659); assay: firefly luciferase enzyme inhibitors, dose response, biochemical, luminescence (AID 1891)
[10] = Luminescence Cell-Based Dose Confirmation HTS to Identify Inhibitors of Platelet Dense Granule Release. [Related pubchem assays: 1663 (Primary HTS), 1678 (Summary of Project)]; format: functional
HEK293 [11] = assay: NOD1 signaling inhibitors, primary screen, cell-based, luminescence, uHTS (AID 1578); format: functional; conditions: Homo sapiens
BJ [12] = assay: cytotoxicity toward BJ-TERT fibroblasts, dose response, cell-based, RAS-independent, luminescence (AID 1933); format: functional; conditions: Homo sapiens
HEK293 [13] = assay: cells; format: functional, cell-based; conditions: Homo sapiens
BJ [14] = assay: cells; format: functional, cell-based; conditions: Homo sapiens
HEK293 [15] = assay: cells; format: functional, cell-based; conditions: Homo sapiens; remark: listed apart in the source
HEK293 [16] = assay: NOD2 signaling inhibitors in MDP-stimulated cells, cell-based, uHTS, luminescence (AID 2001); format: functional; conditions: Homo sapiens
[17] = microbe, parasite or virus in culture; format: functional; conditions: Mycobacterium tuberculosis
BJ [18] = assay: cytotoxicity toward BJ-TERT-LT-ST fibroblasts, dose response, cell-based, RAS-independent, luminescence (AID 1935); format: functional; conditions: Homo sapiens;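 further: BJ fibroblasts immortalized with TERT plus LT and ST oncogenes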
[19] = cytotoxicity toward DRD oncogenic fibroblasts, dose response, cell-based, non-viral oncogenic, luminescence (AID 1934); format: functional; conditions: Homo sapiens
[20] = target: DNA dC->dU-editing enzyme APOBEC-3G (Homo sapiens, UniProt Q9HC16); assay: Dose Response confirmation of small molecule APOBEC3G DNA Deaminase Inhibitors via a fluorescence-based single-stranded DNA deaminase assay. [Related pubchem assays (depositor defined):AID493012, AID493028]; format: functional
[21] = Shn3 3'UTR reporter inhibitors, dose response, cell-based, Clone20 osteoblasts, firefly luciferase, cherry-picked (AID 624132); format: functional;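 further: firefly luciferase luminescence from reporter carrying the Shn3 3'UTR in osteoblasts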
[22] = control 3'UTR Renilla luciferase suppression, dose response, counter-screen for Shn3 inhibitor project, cell-based, Clone20-Shn3RL, cherry-picked (AID 624133); format: functional
[23] = P. falciparum Dd2 growth inhibitors, dose response, SYBR Green, cherry-picked samples (AID 1159567); format: functional, cell-based
[24] = inhibitors of intracellular T. cruzi replication, confirmation, NIH3T3 host cells, beta-gal luminescence (AID 2044); format: functional, cell-based;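 further: intracellular parasites grown in NIH/3T3 mouse fibroblasts as host cells; luminescent beta-galactosidase reporter signal from transgenic T. cruzi replicating inside host cells; inhibitors lower the luminescence signal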
[25] = cytotoxicity toward NIH3T3 fibroblasts, dose response, counter-screen, cell-based, ATP luminescence, mouse fibroblasts (AID 2010); format: functional; conditions: NIH3T3;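 further: cells exposed to compound for about 90 hours before reading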
Cytochrome P450 2C19 = Cytochrome P450 2C19 (Homo sapiens, UniProt P33261); assay: Cytochrome panel assay with activity outcomes. Panel member name: p450-cyp2c19 Compounds with AC50 equal or less than 10 uM are considered active; format: functional; conditions: read-out: AC50
Cytochrome P450 2C9 = Cytochrome P450 2C9 (Homo sapiens, UniProt P11712)
Cytochrome P450 2C9, sequence (P11712 whole entry): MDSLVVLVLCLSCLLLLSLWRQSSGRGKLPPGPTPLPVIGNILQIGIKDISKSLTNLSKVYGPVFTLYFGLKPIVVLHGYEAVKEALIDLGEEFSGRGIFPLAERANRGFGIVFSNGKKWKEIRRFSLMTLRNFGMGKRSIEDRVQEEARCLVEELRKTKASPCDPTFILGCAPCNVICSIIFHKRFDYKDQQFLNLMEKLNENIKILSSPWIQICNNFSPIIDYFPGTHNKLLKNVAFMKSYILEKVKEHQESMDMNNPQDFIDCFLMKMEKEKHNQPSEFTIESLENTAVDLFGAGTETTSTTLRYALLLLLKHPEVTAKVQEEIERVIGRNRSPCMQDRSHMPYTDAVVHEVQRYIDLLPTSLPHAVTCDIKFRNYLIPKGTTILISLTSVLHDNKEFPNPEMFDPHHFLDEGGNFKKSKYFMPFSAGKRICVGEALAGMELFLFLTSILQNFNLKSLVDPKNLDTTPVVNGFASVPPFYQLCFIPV

T4 sequence (P49327 whole entry, the tested form may be a part): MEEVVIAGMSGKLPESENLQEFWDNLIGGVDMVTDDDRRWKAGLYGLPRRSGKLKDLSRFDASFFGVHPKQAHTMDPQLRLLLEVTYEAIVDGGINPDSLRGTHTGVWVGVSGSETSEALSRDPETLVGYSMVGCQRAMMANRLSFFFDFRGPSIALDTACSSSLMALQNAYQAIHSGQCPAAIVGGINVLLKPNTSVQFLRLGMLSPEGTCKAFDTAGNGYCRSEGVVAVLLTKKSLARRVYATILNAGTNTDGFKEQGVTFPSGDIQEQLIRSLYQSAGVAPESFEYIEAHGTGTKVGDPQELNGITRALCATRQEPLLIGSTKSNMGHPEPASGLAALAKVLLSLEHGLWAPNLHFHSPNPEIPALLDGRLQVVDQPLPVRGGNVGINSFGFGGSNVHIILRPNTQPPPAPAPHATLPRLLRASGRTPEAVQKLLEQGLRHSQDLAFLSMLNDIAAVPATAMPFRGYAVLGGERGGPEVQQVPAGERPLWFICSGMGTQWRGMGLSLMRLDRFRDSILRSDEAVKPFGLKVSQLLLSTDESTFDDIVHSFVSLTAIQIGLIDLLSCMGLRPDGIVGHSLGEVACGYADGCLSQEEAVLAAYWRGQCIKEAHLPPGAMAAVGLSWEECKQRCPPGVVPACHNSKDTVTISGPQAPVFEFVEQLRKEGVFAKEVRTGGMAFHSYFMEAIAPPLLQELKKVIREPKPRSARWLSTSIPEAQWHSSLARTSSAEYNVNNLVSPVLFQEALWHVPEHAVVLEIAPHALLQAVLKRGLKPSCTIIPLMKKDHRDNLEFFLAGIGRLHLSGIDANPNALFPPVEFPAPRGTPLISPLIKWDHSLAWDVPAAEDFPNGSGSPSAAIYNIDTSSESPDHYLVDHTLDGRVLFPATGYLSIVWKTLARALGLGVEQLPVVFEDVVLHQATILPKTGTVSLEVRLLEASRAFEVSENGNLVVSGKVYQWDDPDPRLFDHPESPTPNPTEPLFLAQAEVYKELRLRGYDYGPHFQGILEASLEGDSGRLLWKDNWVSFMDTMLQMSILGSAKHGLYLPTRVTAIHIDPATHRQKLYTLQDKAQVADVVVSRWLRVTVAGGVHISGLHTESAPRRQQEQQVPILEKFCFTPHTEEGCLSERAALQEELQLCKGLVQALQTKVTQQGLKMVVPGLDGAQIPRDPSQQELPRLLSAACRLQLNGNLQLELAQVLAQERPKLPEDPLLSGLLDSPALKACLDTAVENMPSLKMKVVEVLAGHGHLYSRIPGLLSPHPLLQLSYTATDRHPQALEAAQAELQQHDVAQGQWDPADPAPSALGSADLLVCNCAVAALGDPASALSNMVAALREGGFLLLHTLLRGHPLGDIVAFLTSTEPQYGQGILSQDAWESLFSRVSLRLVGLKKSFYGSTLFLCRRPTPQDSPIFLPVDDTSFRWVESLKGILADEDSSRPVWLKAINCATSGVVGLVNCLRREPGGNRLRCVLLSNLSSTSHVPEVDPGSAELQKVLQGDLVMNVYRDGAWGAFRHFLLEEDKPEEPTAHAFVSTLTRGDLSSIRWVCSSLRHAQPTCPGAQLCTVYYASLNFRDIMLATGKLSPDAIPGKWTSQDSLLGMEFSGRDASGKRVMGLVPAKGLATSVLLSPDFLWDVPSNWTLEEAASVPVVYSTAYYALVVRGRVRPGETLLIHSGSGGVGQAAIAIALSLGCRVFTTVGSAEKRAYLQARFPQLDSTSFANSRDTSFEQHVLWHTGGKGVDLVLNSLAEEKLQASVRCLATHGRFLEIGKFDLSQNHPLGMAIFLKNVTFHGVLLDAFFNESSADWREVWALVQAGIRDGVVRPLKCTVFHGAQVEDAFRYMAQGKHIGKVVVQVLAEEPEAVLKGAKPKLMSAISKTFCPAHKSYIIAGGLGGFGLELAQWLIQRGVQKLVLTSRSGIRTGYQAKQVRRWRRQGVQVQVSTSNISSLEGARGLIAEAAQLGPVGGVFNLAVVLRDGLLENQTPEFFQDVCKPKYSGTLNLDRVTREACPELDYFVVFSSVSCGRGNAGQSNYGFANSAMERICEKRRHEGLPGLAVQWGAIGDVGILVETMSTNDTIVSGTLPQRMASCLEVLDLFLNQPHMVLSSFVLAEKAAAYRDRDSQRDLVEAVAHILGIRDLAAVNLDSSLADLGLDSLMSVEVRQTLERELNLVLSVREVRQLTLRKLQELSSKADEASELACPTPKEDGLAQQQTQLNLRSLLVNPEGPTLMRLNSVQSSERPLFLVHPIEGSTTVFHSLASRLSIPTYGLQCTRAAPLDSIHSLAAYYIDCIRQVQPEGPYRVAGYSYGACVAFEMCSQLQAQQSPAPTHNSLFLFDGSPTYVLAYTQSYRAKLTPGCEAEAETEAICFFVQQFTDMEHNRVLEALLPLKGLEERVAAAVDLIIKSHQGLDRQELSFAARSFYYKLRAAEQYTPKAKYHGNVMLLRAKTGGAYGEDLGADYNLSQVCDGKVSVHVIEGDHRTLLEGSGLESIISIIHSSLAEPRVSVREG
Luciferin 4-monooxygenase, sequence (P08659 whole entry): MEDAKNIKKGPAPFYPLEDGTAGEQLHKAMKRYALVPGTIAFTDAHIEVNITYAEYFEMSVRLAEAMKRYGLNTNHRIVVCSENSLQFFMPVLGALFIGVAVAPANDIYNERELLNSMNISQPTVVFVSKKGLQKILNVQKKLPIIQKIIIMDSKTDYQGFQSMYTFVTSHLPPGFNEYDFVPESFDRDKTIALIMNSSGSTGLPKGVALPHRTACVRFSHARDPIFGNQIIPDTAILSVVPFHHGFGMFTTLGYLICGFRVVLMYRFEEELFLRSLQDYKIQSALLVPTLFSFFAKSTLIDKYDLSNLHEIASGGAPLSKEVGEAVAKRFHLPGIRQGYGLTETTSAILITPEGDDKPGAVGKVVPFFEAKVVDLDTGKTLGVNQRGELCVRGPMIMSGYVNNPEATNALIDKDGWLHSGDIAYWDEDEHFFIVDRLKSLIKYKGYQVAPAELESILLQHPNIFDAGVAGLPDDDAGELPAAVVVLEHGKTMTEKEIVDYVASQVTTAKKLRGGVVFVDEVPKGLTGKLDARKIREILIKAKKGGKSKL
DNA dC->dU-editing enzyme APOBEC-3G, sequence (Q9HC16 whole entry): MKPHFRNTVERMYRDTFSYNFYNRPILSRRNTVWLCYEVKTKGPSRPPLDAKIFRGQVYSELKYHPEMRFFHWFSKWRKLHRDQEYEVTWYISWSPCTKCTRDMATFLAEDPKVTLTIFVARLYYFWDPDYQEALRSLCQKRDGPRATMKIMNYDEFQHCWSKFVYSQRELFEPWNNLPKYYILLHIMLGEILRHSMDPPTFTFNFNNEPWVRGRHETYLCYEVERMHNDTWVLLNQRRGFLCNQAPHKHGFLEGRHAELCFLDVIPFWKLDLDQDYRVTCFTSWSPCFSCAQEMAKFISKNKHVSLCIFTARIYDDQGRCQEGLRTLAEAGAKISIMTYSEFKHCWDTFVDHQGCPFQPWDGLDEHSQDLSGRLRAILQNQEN
Cytochrome P450 2C19, sequence (P33261 whole entry): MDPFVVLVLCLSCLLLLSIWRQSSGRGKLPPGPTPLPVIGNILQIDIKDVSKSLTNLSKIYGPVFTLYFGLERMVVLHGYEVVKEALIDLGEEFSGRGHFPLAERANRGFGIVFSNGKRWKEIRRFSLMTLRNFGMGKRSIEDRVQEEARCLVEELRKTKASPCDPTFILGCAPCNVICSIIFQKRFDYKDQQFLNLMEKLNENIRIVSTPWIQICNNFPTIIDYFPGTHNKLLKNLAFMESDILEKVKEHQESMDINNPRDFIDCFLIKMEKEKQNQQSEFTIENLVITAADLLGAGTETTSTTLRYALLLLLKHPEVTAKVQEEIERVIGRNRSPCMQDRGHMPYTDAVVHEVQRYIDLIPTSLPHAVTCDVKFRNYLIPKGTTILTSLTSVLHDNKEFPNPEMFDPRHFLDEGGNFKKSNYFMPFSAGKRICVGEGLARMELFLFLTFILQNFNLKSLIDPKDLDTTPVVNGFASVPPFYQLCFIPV

COCCCN(C(=O)c1cc(-c2ccco2)nc2ccccc12)c1c(N)n(Cc2ccccc2)c(=O)[nH]c1=O
IC50 [1]: 12 µM (active)

COc1ccc2c3c1OC1C(O)C=CC4C(C2)[N+](C)(C)CCC341 (centres undefined)
IC50 [1]: 7 µM (active)

Fc1ccc(-n2cc(CNCCc3cccnc3)c(-c3ccccc3Cl)n2)cc1
EC50 [2]: 5.96 µM (active)

Cc1nc2ccccc2n1CC(O)COC1CCCCC1 (centres undefined)
IC50 [3]: 41.8 µM (active) | EC50 [4]: > 53 µM (inactive) | IC50 [5]: 8.02 µM (active)

O=S(=O)(CC(CN1CCCCC1)N1CCCCC1)c1ccccc1 (centres undefined)
CC50 (Vero): 14.4 µM (active)

COc1cccc(NC2=NC(N)=NC3(CCCCC3)N2)c1
EC50 [6]: > 50 µM (active)

CC(C)c1ccc(N(C(=O)c2snc(C(N)=O)c2N)C(C(=O)NC2CCCC2)c2ccncc2)cc1 (centres undefined)
EC50 (cells): > 350 µM (not active)

COC(=O)c1cc(OC)c(OC)cc1NC(=O)c1c(-c2ccccc2Cl)noc1C
IC50 [3]: < 0.368 µM (active) | EC50 [4]: > 53 µM (inactive) | IC50 [5]: > 20 µM (inactive)

CC(CCc1ccco1)NC(=O)c1cccc2c1C(=O)N(C1CCCCC1)C2 (centres undefined)
IC50 [3]: < 0.368 µM (active) | EC50 [4]: > 53 µM (inactive) | IC50 [5]: > 20 µM (inactive)

Cc1cccc(C(=O)NCCC(=O)Nc2ccc(F)c([N+](=O)[O-])c2)c1
EC50 [6]: > 50 µM (active) | IC50 (Fatty acid synthase [7]): 12.3 µM (active) | IC50 (Fatty acid synthase [8]): 9.57 µM (active)

C/C=C/c1ccc(OCc2cc(=O)n3cc(C)ccc3n2)c(OC)c1
EC50 [6]: > 50 µM (active) | EC50 [9]: > 112 µM (not active) | EC50 [10]: 58.2 µM (active)

COc1ccc(C(CNC(=O)COc2ccccc2OC)N(C)C)cc1OC (centres undefined)
EC50 [2]: 1.19 µM (active)

CCOC(=O)C1(Cc2cccc(F)c2)CCN(Cc2cnn(CC)c2C)CC1
EC50 [2]: 0.211 µM (active)

Cc1cccc(C)c1NC(=O)CN(C)C(=O)c1ccc2nc[nH]c2c1
IC50 [1]: 28 µM (active)

Cc1ccc(C)c(OCCn2ccnc2)c1
IC50 [1]: 5.06 µM (active)

CCCc1cc(NC(=O)CCl)n(-c2ccccc2)n1
EC50 (HEK293 [11]): 14.3 µM (active) | EC50 (BJ [12]): 29.7 µM (active) | IC50 (HEK293 [13]): 4.55 µM (active) | EC50 (BJ [14]): > 150 µM (not active) | IC50 (HEK293 [15]): > 20 µM (inactive) | IC50 (HEK293 [16]): 11.1 µM (inactive) | CC50 [17]: 17.4 µM (active) | EC50 (BJ [18]): > 150 µM (not active) | EC50 [19]: > 150 µM (not active)

CCOc1ccc(C(=S)NC2CCCCC2)cc1OCC
IC50 [20]: 55.7 µM (active)

Cc1cc(NC(=O)c2ccccc2)sc1C
EC50 [6]: > 50 µM (active)

O=[N+]([O-])c1ccc2nc(S)sc2c1
IC50 [3]: 7.04 µM (active) | EC50 [4]: 27.1 µM (active) | IC50 [5]: > 20 µM (inactive)

CC[C@]12c3[nH]c4cc(CCC(=O)N(C)C)ccc4c3CCN1C(=O)[C@@H](CC(=O)NC/C=C(\C)CCC=C(C)C)C[C@@H]2C(=O)N1CCN(C(=O)c2ccco2)CC1
AC50 [21]: 1.68 µM (active) | AC50 [22]: 1.72 µM (active)

COc1ccc(CCN(C)CCC(=O)Nc2c(C)cc(C)cc2C)cc1OC
EC50 [2]: 4.73 µM (active)

Cc1noc(C)c1COC(=O)[C@@H](NC(=O)c1ccccc1)C(C)C
AC50 [22]: 52.5 µM (active)

C[C@H](CO)N1C[C@H](C)[C@H](CN(C)C(=O)Nc2ccc(-c3ccccc3)cc2)OCc2ccccc2-c2c(n(C)c3ccccc23)C1=O
AC50 [23]: 4.77 µM (active)

CCOC(=O)N/N=C\c1ccc([N+](=O)[O-])o1
EC50 [6]: > 50 µM (active) | EC50 [24]: 0.542 µM (active) | EC50 [25]: > 30 µM (not active) | AC50 (Cytochrome P450 2C19): 25.1 µM (inconclusive)

CN1c2ccc(C#Cc3cccnc3)cc2[C@@H]2[C@@H](CCN2S(=O)(=O)c2ccccc2F)[C@@H]1CO
AC50 [23]: 3.87 µM (active)

CCC(=O)N1CCC2(CC1)CN(Cc1cc(F)ccc1F)[C@@H](CO)c1[nH]c3cc(OC)ccc3c12
AC50 [23]: 4.19 µM (active)

Clc1cnc(Oc2ccc(Oc3ncc(Cl)cc3Cl)cc2)c(Cl)c1
IC50 [3]: < 0.368 µM (active) | EC50 [4]: > 53 µM (inactive) | IC50 [5]: 18 µM (active) | AC50 (Cytochrome P450 2C9): inconclusive
